From patent EP4410314A1, “COMBINATION THERAPY COMPRISING ANTI-CD22 ANTIBODY-DRUG CONJUGATE AND IRAK1 INHIBITOR” (ADC Therapeutics SA, priority 2023, dated 2024)

Assays:
[1] = system: Ramos, TMD8, and SU-DHL-4 cell lines; assay: In vitro cytotoxicity following pretreatment with chidamide; type: cell-based; details: pretreatment with chidamide (0.25 or 0.5 µM) for 7 days, then ADC for 5 days
Protocol: Chidamide (Selleckchem) was dissolved in dimethyl sulfoxide (DMSO) according to the manufacturer's instructions. Cells were treated with chidamide (0.25 or 0.5 µM) for 7 days at 37°C in a 5% carbon dioxide-gassed, humidified incubator. On day 3, cells were centrifuged, and fresh medium containing the corresponding concentrations of chidamide was added. The control group was treated with equal volumes of DMSO.
Cell viability was measured with the CellTiter 96 Aqueous One Solution Cell Proliferation Assay (Promega). Data were normalized to untreated control cells. The IC50 values were determined using GraphPad software (GraphPad). The mean and standard errors of 3 independent IC50 values were determined.

[2] = system: NALM-6; assay: In vitro cytotoxicity, NALM-6; type: cell-based, human; details: NALM-6 (B-ALL), CD22-positive; mean ± SEM
[3] = system: KARPAS-299; assay: DNA interstrand crosslinks, single cell gel electrophoresis (Comet) assay, KARPAS-299; type: cell-based, human; details: KARPAS-299 (CD22-negative), over 48 hours following a 2-hour treatment
Protocol: (§1) Quantification of in vitro DNA interstrand crosslinks (ICLs) was performed using the single cell gel electrophoresis (Comet) assay.
(§2) DNA ICLs were measured using a modification of the single-cell gel electrophoresis (Comet) assay, and crosslinking was expressed as the percentage decrease in Olive tail moment (OTM) versus control irradiated cells. […] Immediately after the drug incubation period, a low level of ICLs (3%) was observed, which increased over time to near peak levels (≈50%) at 12 hours and persisted up to 48 hours. […] In this cell line, SG3199 produced a high level of ICL (≈50%), similar to that observed in the Ramos cell line.

[4] = system: Ramos cells; assay: DNA interstrand crosslinks, single cell gel electrophoresis (Comet) assay, Ramos; type: cell-based, human; details: 2-hour exposure
Protocol: as §1, §2

[5] = system: REH cells; assay: Disseminated B-ALL-derived xenograft model (REH); type: in vivo, mice
Protocol: (§3) The log-rank test was used to analyze the significance of differences in TTE between the 2 groups. For the disseminated xenografts model, 10^7 REH cells were inoculated intravenously (IV) into 5- to 8-week-old female NOG mice (Taconic Biosciences). Test compounds were administered IV 4 days after tumor cell inoculation. Individual mice were euthanized, and an autopsy was performed when hind leg paralysis (a sign of leukemia development) occurred and/or the body weight decreased ≥20%. The study was terminated on day 62. The log-rank test was used to determine the significance of the differences in overall survival.

[6] = system: ABC-DLBCL; assay: In vitro cytotoxic activity, lymphoma cell line panel: ABC-DLBCL; type: cell-based, human; details: 6 cell lines, read-out: Median IC50
[7] = system: Ramos; assay: In vitro cytotoxicity, Ramos; type: cell-based, human; details: Ramos (BL), CD22-positive; mean ± SEM
[8] = system: WSU-DLCL2 xenograft; assay: SC WSU-DLCL2 xenograft model; type: in vivo, mice
Excerpt: (§4) Ramos, WSU-DLCL2, and KARPAS-299 xenografts were established in 8- to 10-week-old female Fox Chase mice with severe combined immunodeficiency (Charles River Laboratories) by implanting 10^7 cells subcutaneously (SC) into their flanks. When group mean tumor volumes reached approximately 116 to 132 mm^3, mice were randomly allocated into groups to receive the test agent or vehicle. Each animal was euthanized when its tumor reached the end point volume or at the study end. The time to end point (TTE) for analysis was calculated for each mouse by the following equation: TTE (days) = ([log10(end point volume−intercept^(*)]/slope^(*)) [formula] where the * indicates the slope of the line obtained by linear regression of a log-transformed tumor growth data set.
as §3

[9] = system: Daudi; assay: In vitro cytotoxicity, Daudi; type: cell-based, human; details: Daudi (BL), CD22-positive; mean ± SEM
[10] = system: PMBCL; assay: In vitro cytotoxic activity, lymphoma cell line panel: PMBCL; type: cell-based, human; details: 1 cell line, read-out: Median IC50
[11] = system: GRANTA-519; assay: In vitro cytotoxicity, GRANTA-519; type: cell-based, human; details: GRANTA-519 (MCL), CD22-positive; mean ± SEM
[12] = system: CLL; assay: In vitro cytotoxic activity, lymphoma cell line panel: CLL; type: cell-based, human; details: 2 cell lines, read-out: Median IC50
[13] = system: CTCL; assay: In vitro cytotoxic activity, lymphoma cell line panel: CTCL; type: cell-based, human; details: 3 cell lines, read-out: Median IC50
[14] = system: REH; assay: In vitro cytotoxicity, REH; type: cell-based, human; details: REH (B-ALL), CD22-positive; mean ± SEM
[15] = system: DO HH-2; assay: In vitro cytotoxicity, DO HH-2; type: cell-based, human; details: DO HH-2 (FL), CD22-positive; mean ± SEM
[16] = system: ALCL; assay: In vitro cytotoxic activity, lymphoma cell line panel: ALCL; type: cell-based, human; details: 5 cell lines, read-out: Median IC50
[17] = system: B cells; assay: B-cell depletion from circulation; type: in vivo; details: cynomolgus monkeys, after one ADCT-602 dose
[18] = system: NAMALWA; assay: In vitro cytotoxicity, NAMALWA; type: cell-based, human; details: NAMALWA (BL), CD22-positive; mean ± SEM
[19] = system: GCB-DLBCL; assay: In vitro cytotoxic activity, lymphoma cell line panel: GCB-DLBCL; type: cell-based, human; details: 20 cell lines, read-out: Median IC50
[20] = system: MEC-2; assay: In vitro cytotoxicity, MEC-2; type: cell-based, human; details: MEC-2 (CLL), CD22-positive; mean ± SEM
[21] = system: MCL; assay: In vitro cytotoxic activity, lymphoma cell line panel: MCL; type: cell-based, human; details: 10 cell lines, read-out: Median IC50
[22] = system: PTCL-NOS; assay: In vitro cytotoxic activity, lymphoma cell line panel: PTCL-NOS; type: cell-based, human; details: 1 cell line, read-out: Median IC50
[23] = system: KARPAS-299 xenograft; assay: SC KARPAS-299 xenograft model (CD22-negative); type: in vivo, mice; details: single 1 mg/kg dose; end of the study (day 29)
Excerpt: as §4, §3

[24] = system: KM-H2; assay: In vitro cytotoxicity, KM-H2; type: cell-based, human; details: KM-H2 (HL), CD22-negative; mean ± SEM
[25] = system: SEM cells; assay: In vitro cytotoxicity, SEM; type: cell-based, human; details: SEM (B-ALL), CD22-positive; mean ± SEM
[26] = single dose 3 mg/kg, end of the study (day 59)

Substance: ADCT-602: novel ADC targeting CD22 that consists of humanized monoclonal antibody hLL2-C220, sitespecifically conjugated to the pyrrolobenzodiazepine (PBD) dimer-based payload tesirine
- improvement of ADCT-602 IC50 compared with cells pretreated with DMSO [1]: up to 2.5 fold
- IC50 [2]: 0.11 ± 0.018 nM
- DNA ICLs, percentage decrease in Olive tail moment (OTM) versus control irradiated cells [3]: ≈ 15%
- DNA ICLs, percentage decrease in Olive tail moment (OTM) versus control irradiated cells ([4]; immediately after the drug incubation period): 3%
- DNA ICLs, percentage decrease in Olive tail moment (OTM) versus control irradiated cells ([4]; peak / near peak level at 12 hours): ≈ 50%
- survival time, single dose versus equivalent fractionated dose ([5]; single 1.3 mg/kg versus 0.45 mg/kg, every 4 days, for 3 times [Q4D×3]): comparable survival time
- survival compared with the vehicle and the isotype control ADC ([5]; single dose at 0.45 mg/kg and 1.3 mg/kg IV): dose-dependent extension of survival
- IC50 [6]: 395 pM
- IC50 [7]: 0.06 ± 0.021 nM
- CRs [8, 26]: 7/10
- partial responders [8, 26]: 3/10
- tumor-free survivors [8, 26]: 2/10
- antitumor activity compared with the vehicle and the isotype control ADC ([8]; single dose at 1 and 3 mg/kg): dose-dependent antitumor activity
- IC50 [9]: 0.07 ± 0.021 nM
- IC50 [10]: 35 pM
- IC50 [11]: 0.02 ± 0.0005 nM
- IC50 [12]: 230 pM
- IC50 [13]: 1750 pM
- IC50 [14]: 0.05 ± 0.006 nM
- IC50 [15]: 0.06 ± 0.009 nM
- IC50 [16]: 2850 pM
- depletion of B cells from circulation [17]: efficiently depleted
- IC50 [18]: 2.27 ± 0.052 nM
- IC50 [19]: 100 pM
- IC50 [20]: 0.18 ± 0.05 nM
- IC50 [21]: 375 pM
- IC50 [22]: 700 pM
- antitumor activity compared with the vehicle group [23]: no significant antitumor activity
- IC50 [24]: 11.4 ± 1.11 nM
- IC50 [25]: 0.52 ± 0.08 nM
